Measured values: patent US6514734B1, “Polybifunctional reagent having a polymeric backbone and latent reactive moieties and bioactive groups” (Surmodics, Inc., priority 1997, dated 2003)
Where no end group is shown, it is not given here.

Tests used:
[1] = system: CPAE cells; test: Cell growth activity of immobilized peptides (MTT); assay type: cell-based, Calf; details: for growth on peptide polymers, times that observed on uncoated PS / growth on adsorbed peptides, times that observed on uncoated PS: wet immobilization protocol; for relative cell growth score, Immobil. Peptide Polymer: illuminated, dry immobilization protocol; for relative cell growth score, Immobil. Peptide Polymer / relative cell growth score, Adsorbed Peptide Reagent: relative to uncoated; for relative cell growth score, Adsorbed Peptide Reagent: nonilluminated
Description: The growth assays were conducted in 24-well PS culture plates. When PU and SR were evaluated, discs of each material (with or without coatings) were placed in the bottoms of the culture plate wells. When PS was evaluated, the bottoms of the wells were coated. For each assay, uncoated and peptide coated biomaterials (PS, PU, and SR) were seeded with CPAE cells at 1500 cells per well and allowed to proliferate in vitro for 4 to 7 days. Then, the media was aspirated and the cell growth was quantitated using MTT dye.
The following table summarizes results that compared cell growth on uncoated substrates, adsorbed peptides, and peptide polymers. As with the attachment assays, the relative numbers of cells growing on each peptide coated biomaterial was divided by the number of cells growing on the uncoated (UC) biomaterials to obtain a relative cell growth score. Each value represents the average of 1 to 4 different experiments, with each experiment being conducted with 3 or 4 replicates. The dry immobilization protocol described herein was used to immobilize all peptides evaluated. Immobil. Peptide Polymer refers to illuminated peptide polymer. Adsorbed Peptide Reagent refers to non illuminated peptide reagent. ND=not determined.
In addition to the peptides shown in the table above, C/H-II and HEP-III were also evaluated for growth on PS. With these two peptides, growth on adsorbed peptides was 1.0 and 1.1 times that observed on uncoated PS, and growth on peptide polymers was 10.5 and 13 times that observed on uncoated PS. These two peptides (polymers and reagent controls) were immobilized via the wet immobilization protocol. The results with C/H-II and HEP-III are the averages of 1and 2 experiments, respectively, with each experiment being conducted with 4 replicates.

[2] = system: Calf pulmonary artery endothelial (CPAE) cells; test: Cell attachment activity of immobilized peptides (MTT); assay type: cell-based; design: key: cells attached to coated ÷ cells attached to uncoated (MTT); details: relative to uncoated; for relative cell attachment score, Immobil. Peptide Polymer: illuminated; for relative cell attachment score, Adsorbed Peptide Reagent: nonilluminated
Description: Calf pulmonary artery endothelial (CPAE) cells were purchased from ATCC (American Type Culture Collection, Rockville, Md.) and cultured as indicated by ATCC. The attachment assays were conducted in 48-well PS culture plates. When PU and SR were evaluated, discs of each material (with or without coatings) were placed in the bottoms of the culture plate wells. When PS was evaluated, the bottoms of the wells were coated. For each assay, uncoated and peptide coated biomaterials (PS, PU, and SR) were seeded at 50,000 cells per well in serum free media containing 2 mg/ml of bovine serum albumin (BSA fraction V, from Sigma Chemical Company, St. Louis, Mo.). The cells were allowed to attach to each biomaterial for two hours. Then the unattached cells were removed by aspiration, and the wells were rinsed twice with Hank's Balanced Salt Solution (Celox Corp., Hopkins, Minn.). Finally, the attached cells were quantitated by the addition of culture media containing a metabolic dye, MTT [3-(4,5-dimethylthiazol-2-yl)-2,5-diphenyltetrazolium bromide] which is converted from a yellow tetrazolium salt into an insoluble, purple formazan in the presence of viable cells. After a two hour incubation in culture media containing MTT, the media was removed, and the formazan dye that had been deposited inside the viable cells was solubilized (with acidic isopropanol) and read on a spectrophotometer at 570 nm. The absorbance of the formazan is directly proportional to the number of attached, viable cells present per well.
The following table summarizes results of cell attachment assays comparing immobilized peptide polymers and adsorbed peptide reagent controls. In each case, the relative numbers of cells that attached to the peptide-coated biomaterials (as determined by MTT dye) were divided by the number of cells that attached to the uncoated (UC) biomaterials to obtain a relative cell attachment score. Each value represents the average of 1 to 4 different experiments, with each experiment being conducted with 3 or 4 replicates. The peptides were immobilized onto PS using the wet immobilization protocol described herein and the peptides were immobilized onto SR and PU via the dry immobilization protocol. Immobil. Peptide Polymer refers to illuminated peptide polymer. Adsorbed Peptide Reagent refers to nonilluminated peptide reagent. ND=not determined.

[3] = target: T1, bovine thrombin (Bos taurus, UniProt P00735); test: Activities of hirudin and hirudin polymer in solution (thrombin inhibition, Chromozym TH); assay type: biochemical; details: per mg of hirudin
T1 construct: a known amount of bovine thrombin; purchased Sigma Chemical Co., St. Louis, Mo
Description: The specific activities of hirudin and hirudin polymer were determined by standard protocols provided by Transgene and are expressed as antithrombin units (ATU's) per mg of hirudin. One ATU is the amount of hirudin that is required to inhibit the proteolytic activity of one NIH unit of thrombin. For these assays, a known amount of bovine thrombin (175-350 NIH units/mg., from Sigma Chemical Co., St. Louis, Mo.) was preincubated with a series of dilutions of hirudin or hirudin polymer, and the remaining thrombin activity was determined with a chromogenic substrate, Chromozym TH (from Boehringer Mannheim Corp, Indianapolis, Ind.). The specific activities of hirudin assayed before and after incorporation into the hirudin polymer were 11,710 and 10,204 ATU/mg, respectively. Therefore incorporation of hirudin into the polymer produced only a 13% decrease in its activity.

[4] = target: T1, bovine thrombin; details: from Transgene Laboratories; cited from earlier work
[5] = as obtained from Celsus Laboratories; cited from earlier work
[6] = system: biotin derivatized horseradish peroxidase (biotin-HRP); test: Streptavidin polymer coating on glass rods: binding of biotin-HRP; details: for Absorbance of Biotin-HRP: glass rods
Description: (§1) The organosilane primed glass rods were dipped into a solution of streptavidin polymer for 30 seconds. The glass rods were removed from the solution, allowed to air dry, and illuminated for 30 seconds with a Dymax lamp. Adsorption controls were prepared via the same protocol, except that they were not illuminated. Both type of coated rods were washed with PBS containing 0.05% Tween 20 to remove nonadherent streptavidin polymer.
(§2) Streptavidin is a receptor that binds strongly to biotin as its ligand. The activity of streptavidin polymer coating was evaluated by quantifying the binding of added biotin derivatized horseradish peroxidase (biotin-HRP, obtained from Pierce Chemical Company, Rockford, Ill.). The glass rods were incubated for one hour in a 9 μg/ml solution of biotin-HRP. The binding of underivatized HRP (added at 9 μg/mi) was evaluated as a control for nonspecific binding of HRP to the glass rods. The rods were then washed with PBS containing 0.05% Tween 20 to remove nonbound HRP, and the relative activity of bound HRP was evaluated with a TMB peroxidase substrate system (Kirkegaard and Perry Laboratory, Inc., Gaithersburg, Md.). HRP catalyzes the oxidation of TMB and produces a color that is quantitated spectrophotometrically at 405 nm. Each result is the average of 3 determinations.

[7] = target: T2, underivatized HRP (Armoracia rusticana, UniProt P00433); test: Streptavidin polymer coating on glass rods: nonspecific binding of underivatized HRP
T2 sequence (P00433 31-338): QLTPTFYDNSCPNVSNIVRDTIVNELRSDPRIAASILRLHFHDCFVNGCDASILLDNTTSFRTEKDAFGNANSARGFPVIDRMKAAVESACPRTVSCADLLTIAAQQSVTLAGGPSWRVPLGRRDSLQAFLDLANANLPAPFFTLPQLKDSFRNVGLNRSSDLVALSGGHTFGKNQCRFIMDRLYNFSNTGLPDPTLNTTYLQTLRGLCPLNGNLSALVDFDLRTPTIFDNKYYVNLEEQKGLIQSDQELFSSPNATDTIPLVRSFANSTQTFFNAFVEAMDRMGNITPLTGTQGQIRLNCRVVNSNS
Description: as §1, §2

[8] = system: immunoglobulin G (IgG); test: Activity of protein A polymer coatings: binding and elution of IgG from rabbit serum; details: for Fold greater IgG on protein A coating: versus uncoated control
Description: Protein A is a bacterial protein that binds specifically to the Fc region of immunoglobulin G (IgG) molecules. The activity of the protein A coating on each type of membrane was evaluated by assaying for binding by added IgG. Uncoated membranes were used as controls. For this assay, 2 ml of rabbit serum was diluted 1:5 in PBS and perfused through the coated membranes at 2-3 ml/min. The membranes were then washed with PBS to remove unbound IgG. The bound IgG was then eluted with 0.1 M glycine in 2% acetic acid. The amount of eluted IgG was determined by measuring the absorbance of the eluant at 280 nm and using an extinction coefficient (ε280) of 1.4 ml/cm-mg to calculate the mg of eluted IgG. Also the IgG that eluted from each membrane type was evaluated for purity by reduced SDS PAGE analysis. With the biomaterials coated with protein A polymer, the eluted protein was greater than 90% light and heavy chains of IgG. In contrast, the major protein that eluted from uncoated controls was albumin.
Three discs of each type (PSO or RC) were placed in a MAC-25 holder and evaluated using this procedure.

[9] = Polyurethane, dry immobilization protocol
[10] = Silicone Rubber, dry immobilization protocol

## HEP-III polymer: photoreactive polyacrylamide copolymer of HEP-III peptide monomer (SEQ ID NO: 12), BBA-APMA and acrylamide (CKGEFYFDLRLKGDK; also: photoreactive polyacrylamide copolymer with BBA-APMA and acrylamide)
[1]
  growth on peptide polymers, times that observed on uncoated PS: 13 times

## F-9 polymer: photoreactive polyacrylamide copolymer of F-9 peptide monomer (SEQ ID NO:11), BBA-APMA and acrylamide (RYVVLPRPVCFEKK; also: photoreactive polyacrylamide copolymer with BBA-APMA and acrylamide)
[2]; Polystyrene, wet immobilization protocol
  relative cell attachment score, Immobil. Peptide Polymer: 5.7
[2]; [9]
  relative cell attachment score, Immobil. Peptide Polymer: 1.9
[2]; [10]
  relative cell attachment score, Immobil. Peptide Polymer: 0.9
[1]; Polystyrene, 4 to 7 days
  relative cell growth score, Immobil. Peptide Polymer: 14.8
[1]; Polyurethane
  relative cell growth score, Immobil. Peptide Polymer: 7.7
[1]; Silicone Rubber
  relative cell growth score, Immobil. Peptide Polymer: 2.4

## C/H-II polymer: photoreactive polyacrylamide copolymer of C/H-II peptide monomer (SEQ ID NO: 10), BBA-APMA and acrylamide (CKNNQKSEPLIGRKKT; also: photoreactive polyacrylamide copolymer with BBA-APMA and acrylamide)
[1]
  growth on peptide polymers, times that observed on uncoated PS: 10.5 times

## CKKWQPPRARI [C/H-V reagent control, C/H-V peptide not incorporated into polymer, fibronectin-derived, reference compound]
[2]; Silicone Rubber
  relative cell attachment score, Adsorbed Peptide Reagent: 0.4
[1]; Polystyrene
  relative cell growth score, Adsorbed Peptide Reagent: 1.0
[1]; Polyurethane
  relative cell growth score, Adsorbed Peptide Reagent: 0.7
[1]; Silicone Rubber
  relative cell growth score, Adsorbed Peptide Reagent: 2.0

## C/H-V polymer: photoreactive polyacrylamide copolymer of C/H-V peptide monomer (SEQ ID NO: 9), BBA-APMA and acrylamide (CKKWQPPRARI; also: photoreactive polyacrylamide copolymer with BBA-APMA and acrylamide)
[2]; [9]
  relative cell attachment score, Immobil. Peptide Polymer: 1.4
[2]; [10]
  relative cell attachment score, Immobil. Peptide Polymer: 1.3
[1]; Polystyrene, 4 to 7 days
  relative cell growth score, Immobil. Peptide Polymer: 11.3
[1]; Polyurethane
  relative cell growth score, Immobil. Peptide Polymer: 3.9
[1]; Silicone Rubber
  relative cell growth score, Immobil. Peptide Polymer: 1.0

## hirudin
[3]
  specific activity: 11,710 ATU/mg
[4]
  activity of recombinant hirudin as obtained: 16,500±2000 ATU/mg

## GRGDSPKKC [RGD reagent control, reference compound]
[2]; Polystyrene
  relative cell attachment score, Adsorbed Peptide Reagent: 1.4
[2]; Silicone Rubber
  relative cell attachment score, Adsorbed Peptide Reagent: 1.1
[1]; Polystyrene
  relative cell growth score, Adsorbed Peptide Reagent: 1.2
[1]; Polyurethane
  relative cell growth score, Adsorbed Peptide Reagent: 1.7
[1]; Silicone Rubber
  relative cell growth score, Adsorbed Peptide Reagent: 1.1

## heparin [Unbleached heparin]
[5]
  heparin activity: 152 units/mg

## streptavidin polymer: photoreactive polyacrylamide containing streptavidin ligands
[6]; biotin-HRP added
  peroxidase activity of adsorbed, fold less than covalent: 3.5 fold
[6]; adsorbed (nonilluminated)
  Absorbance of Biotin-HRP: 0.285
[6]; covalent (photoimmobilized)
  Absorbance of Biotin-HRP: 1.005
[7]; adsorbed (nonilluminated)
  Absorbance of HRP: 0.065
[7]; covalent (photoimmobilized)
  Absorbance of HRP: 0.056

## Cys Lys Gly Glu Phe Try Phe Asp Leu Arg Leu Lys Gly Asp Lys [HEP-III reagent control, reference compound]
[1]
  growth on adsorbed peptides, times that observed on uncoated PS: 1.1 times

## Cys Lys Asn Asn Gln Lys Ser GIu Pro Leu Ile Gly Arg Lys Lys Thr [C/H-II reagent control, reference compound]
[1]
  growth on adsorbed peptides, times that observed on uncoated PS: 1.0 times

## protein A polymer: photoreactive polyacrylamide containing recombinant staphylococcal protein A ligands
[8]; Polysulfone membrane, average of 10 cycles
  IgG eluted: 0.680 mg/disc
[8]; Polysulfone
  Fold greater IgG on protein A coating: 34
[8]; Regenerated cellulose membrane, average of 3 cycles
  IgG eluted: 0.383 mg/disc
[8]; Regenerated cellulose
  Fold greater IgG on protein A coating: 64

## RYVVLPRPVCFEKK [F-9 reagent control, F-9 peptide not incorporated into polymer, laminin-derived, reference compound]
[2]; Polystyrene
  relative cell attachment score, Adsorbed Peptide Reagent: 0.8
[1]; Polystyrene
  relative cell growth score, Adsorbed Peptide Reagent: 1.0
[1]; Polyurethane
  relative cell growth score, Adsorbed Peptide Reagent: 1.7
[1]; Silicone Rubber
  relative cell growth score, Adsorbed Peptide Reagent: 1.7
